Literature values, collected in patent US20200069758A1, “COMPOSITION FOR USE IN THE PREVENTIVE AND/OR CURATIVE TREATMENT OF NON-ALCOHOLIC FATTY LIVER DISEASE” (NORMAPHAR SA, priority 2018, published 2020).

Conditions: background art statement; for complications / mortality on administration: long-term or high-dose administration

Compound | complications / mortality on administration | reduction of non-alcoholic fatty liver disease (simple fatty liver disease, NASH)
CCc1ccc(CCOc2ccc(CC3SC(=O)NC3=O)cc2)nc1 (stereo not shown) [pioglitazone] | heart failure, osteoporosis and weight gain | –
Vitamin E | increases all-cause mortality | reductions were observed in the inflammation and non-alcoholic fatty liver disease
CN(C)C(=N)N=C(N)N [metformin] | – | failed to significantly reduce
